Test results as given in patent US20150273076A1, “SP1 POLYPEPTIDES, MODIFIED SP1 POLYPEPTIDES AND USES THEREOF” (Fulcrum SP Ltd., priority 2006, published 2015).
≈ marks a conversion by molar mass, not a printed value.

How the values were obtained:
[1] = mouse, in vivo, iv
Experimental: C57B1 male mice bearing the B16-F10 (B16) melanoma tumor were divided into three groups: Group A-injected once (iv with fluoresceinamine-SP1 conjugate (10 mg/ml, 0.1 ml per mouse), n=5 mice;
Group B-injected once with unconjugated fluoresceinamine solution (34 mM in PBS, 0.1 ml per animal); n=5 mice; and Group C received no treatment. n=2 mice. Internal organs were harvested 24 hours post injection, and stored at 70° C. Blood was collected and left at room temperature to coagulate. Tumor extracts and serum samples were analyzed on SDS PAGE, and proteins were blotted onto nitrocellulose. Immunodetection of SP1 was with rabbit anti SP1 and HRP-conjugated second antibody.
B16-F10 (B16) melanoma tumor C57B1 male mice bearing the B16-F10 (B16) melanoma tumor were prepared and cared for as described by Kalechman (Int J Cancer 2000; 86:281-8). B16F10 melanoma cells (5×10^5 or 5×10^6 cells/mouse) were injected into the lateral tail vein of the mice and the presence of cancer tumors was evaluated at day 14 following melanoma cell injection by an overall view of the mouse and/or histopathology examinations. […]

SP1 = assay: Vinblastine binding to SP1 by intrinsic tryptophan fluorescence; set-up: species or system Populus tremula; settings: native SP1; 80 μM Vinblastine shifts maximal emission to 356 nm
Experimental: FIG. 23 is a graph showing the complex formation of the drug Vinblastine to SP1. Left panel-emission spectra (excitation wavelength=286.00 nm) of pure SP1 (48 μM in MES) was determined using a fluorometer. Both native (left curves) and unfolded (6M Guanidinum HCl)(right curves) SP1 were tested. The net effect of Vinblastine on Tryptophan fluorescence of native protein was calculated by subtracting the relative quenching by the unfolded protein from those of the native protein at the respective maximal emission wavelength (340 nm and 321 nm respectively). Note that the tryptophan fluorescence of both the folded and unfolded SP1 protein is quenched by Vinblastine complexing, but in the case of the folded protein is also accompanied by a red shift);
Vinblastine, a vinca alkaloid, is mainly useful for treating Hodgkin's disease, lymphocytic lymphoma, histiocytic lymphoma, advanced testicular cancer, advanced breast cancer, Kaposi's sarcoma. Vinblastine binding to SP1, was determined by Intrinsic Tryptophan fluorescence measurements.
SP1 has only one Tryptophan residue (Trp 48). […] Unfolded protein fluorescence is also quenched by Vinblastine (FIG. 23), but unlike the native protein it is not accompanied by red shift. Thus, folded SP1-Vinblastine association can be detected, and quantified by changes in its Intrinsic Tryptophan fluorescence.

[2] = tested on: Human colon adenocarcinoma (HT-29) cells; assay: In-vitro cytotoxicity in HT-29 cells; assay type: cell-based; settings: HT-29 cells, dose inhibiting 50% of cell growth
Excerpt: FIGS. 24a and 24b are graphs illustrating the in-vitro cytotoxic effects of SP1-DOX complex. FIG. 24a—HT-29 cells cultured in 96 well microtiter plates were exposed to uncomplexed DOX (closed oval, magenta) or SP1-DOX complex (closed triangle, blue) prepared as described in FIGS. 9-15, at the indicated concentrations. FIG. 24b—HT-29 cells were exposed to uncomplexed SP1 (without DOX) (closed diamond, blue) or SP1-DOX complex (closed triangle, yellow) at indicated concentrations. Proportion of living cells was determined by MTT assay, and the IC50 was calculated.
HT-29 cells were prepared as in FIG. 24 above.
Human colon adenocarcinoma (HT-29) cells. The cells were grown in 50-ml flasks containing DMEM medium (Biological Industries, Bet Haemek), supplemented with 10% fetal calf serum, 1% glutamine and 1% Antibiotic-Antimicotic solution (Biolab, Israel). The cells were trypsinizated, and 2 ml medium containing 5×10^4 cells were plated in each well of a 6-wells plate. SP1, drugs or SP1-complexed with drugs was added at the indicated concentrations. The cells were incubated at 37° C. in a humidified atmosphere containing 5% CO2.After 48 hours the medium in the presence or absence of drugs was replaced in each well respectively, to maintain a constant supply of ingredients and drugs. After four days the medium was removed and the number of viable cells in the cultures was determined by spectroscopy.
The human colorectal adenocarcinoma cell line, HT-29, was used to evaluate the biological activity of the SP1-DOX complex, compared to that of the free drug and un-complexed SP1 protein. […] Thus, the SP1-DOX complex is at least as biologically active as free DOX.

[3] = tested on: human LS147T colon cancer; assay: In-vivo anti-tumorogenic activity in colon cancer xenograft; set-up: species or system CD1 nude mice; settings: SP1-DOX 0.5 and free DOX 3 mg DOX/kg iv two times a week
Experimental: CD1 nude mice bearing human LS147T colon cancer (one million cells per animal) subcutaneous xenografted tumors were divided into two groups (n=6), and received either SP1-Dox (50 mg/Kg in PBS, about 0.5 mg DOX equivalent/Kg) or PBS (FIG. 27a), or uncomplexed DOX (3 mg/Kg) or PBS (FIG. 27b) alone injected intravenously into the tail vein twice per week for four weeks. Tumors were removed and weighed 35 days post engraftment.
Human LS147T colon cancer (one million cells per animal) were grafted sub cutaneously to CD1 nude mice, […], 18-20 g) (Meyer et al. 1995 Am J Dermatopath; 17:368-73). 8 days later a 3-10-mm tumor appeared in the point of injection. […]
8 days after tumor grafting SP1-DOX (50 mg/Kg in PBS, about […]), free DOX (3 mg/Kg in PBS) or PBS alone, six mice in each group, were injected iv to the tail vein twice a week for four weeks. Tumor dimension was determined by caliper measurements by the standard equation (Kalechman et al. Int J Cancer 2000; 86:281-8). […] Tumors were removed and their weight was determined.
The effect of SP1-complexing on the anti-tumorogenic activity of DOX was determined in vivo using the LS147 (human colon cancer) model in CD1 nude mice (Meyer 1995). […] At 35 days past tumor grafting, the animals were sacrificed, tumors were removed and their weight recorded (FIGS. 27a and 27b). […]

## Nc1ccc2c(c1)C(=O)OC21c2ccc(O)cc2Oc2cc(O)ccc21 [Fluoresceinamine]
[1]
  clearance from circulation: rapidly cleared

## CC[C@]1(O)C[C@@H]2CN(CCc3c([nH]c4ccccc34)[C@@](C(=O)OC)(c3cc4c(cc3OC)N(C)[C@H]3[C@@](O)(C(=O)OC)[C@H](OC(C)=O)[C@]5(CC)C=CCN6CC[C@]43[C@@H]65)C2)C1 [Vinblastine]
SP1
  effect on SP1 tryptophan fluorescence: fluorescence quenching accompanied by a red shift

## COc1cccc2c1C(=O)c1c(O)c3c(c(O)c1C2=O)C[C@@](O)(C(=O)CO)C[C@@H]3O[C@H]1C[C@H](N)[C@H](O)[C@H](C)O1 [doxorubicin]
[2]
  IC50: ~0.6 µg/mL (≈ 1.1 µM)
[3]
  histological examination of the tumors: extensive necrosis
[3]; 35 days
  average tumor size in the end of the experiment versus PBS-treated animals: much smaller
